Where two headings read alike, the source gives them in different places.
Experiments:
[1] = test system: human gastric cancer adenocarcinoma cell line; settings: cited from earlier work
[2] = test system: human lung cancer cell line (A549); experiment: SRB cytotoxicity evaluation, A549; type: cell-based; settings: for IC50: SRB, A549
Method: (§1) To verify the cytotoxic effect of the compounds prepared in Examples above, cytotoxicity was induced in cancer cells and SRB (Sulforhodamin B dye-staining) evaluation was conducted.
(§2) Each compound prepared in Examples was dissolved in 10% DMSO. 10 μL of the solution and 190 μL of cell suspension (5×10^4 cells/ml) were placed in standard 96-well plate and cultured in 5% CO2 condition at 37° C. for 3 days. 190 μL of the same cell suspension was placed in at least 16 wells, followed by cultivation at 37° C. for 30 minutes, and used as zero-day control. After cultivation for a predetermined period of time, cells were fixed by adding 50 μL of 50% trichloroacetic acid in each well, followed by incubation at 4° C. for 30 minutes. Cells were washed with water 5 times, dried at room temperature, and stained by adding 100 μL of 1% acetic acid solution containing […] in each well, and then washed with 1% acetic acid after 1 hour and dried in air. 200 μL of 10 mM Tris-base was added in each well and stirred well, thereby dissolving the bound staining agent, followed by measurement of absorbance at 515 nm by using ELISA reader. Viability was determined based on the difference between the zero-day control group and 10% DMSO-treated control group. Viability about ellipticin and doxorubicin were also measured for comparison.
(§3) Meanwhile, SRB evaluation was also conducted for human lung cancer cell line (A549), human ovarian cancer cell line (SK-OV-3), human melanoma cell line (SK-MEL-2), human central nervous system tumor cell line (XF498), and human colon cancer cell line (HCT15), and the results are shown in TABLE 2.

[3] = test system: human melanoma cell line (SK-MEL-2); experiment: SRB cytotoxicity evaluation, SK-MEL-2; type: cell-based; settings: for IC50: SRB, SK-MEL-2
Method: as §1, §2, §3

[4] = test system: human fibrosarcoma cell line (HT1080); experiment: SRB cytotoxicity evaluation, HT1080; type: cell-based; settings: for IC50: SRB, 3 days culture, HT1080
Method: as §1
(§4) Cancer cell lines used herein (NCI, US) was human gastric cancer cell line (SNU-638), human colon cancer cell line (Col2), human fibrosarcoma cell line (HT1080), and human myelogenous leukemia cell line (HL-60).
as §2

[5] = test system: human colon cancer cell line (Col2); experiment: SRB cytotoxicity evaluation, Col2; type: cell-based; settings: 3 days culture
Method: as §1, §4, §2

[6] = test system: human central nervous system tumor cell line (XF498); experiment: SRB cytotoxicity evaluation, XF498; type: cell-based; settings: for IC50: SRB, XF498
Method: as §1, §2, §3

[7] = test system: human ovarian cancer cell line (SK-OV-3); experiment: SRB cytotoxicity evaluation, SK-OV-3; type: cell-based; settings: for IC50: SRB, SK-OV-3
Method: as §1, §2, §3

[8] = test system: human colon cancer cell line (HCT15); experiment: SRB cytotoxicity evaluation, HCT15; type: cell-based
Method: as §1, §2, §3

[9] = test system: human gastric cancer cell line (SNU-638); experiment: SRB cytotoxicity evaluation, SNU-638; type: cell-based; settings: 3 days culture
Method: as §1, §4, §2

[10] = test system: human myelogenous leukemia cell line (HL-60); experiment: SRB cytotoxicity evaluation, HL-60; type: cell-based; settings: 3 days culture
Method: as §1, §4, §2

[11] = comparison among tested compounds, in words

Row | SMILES | IC50 ([2]; Homo sapiens) [nM] | IC50 ([3]; Homo sapiens) [nM] | IC50 ([4]; Homo sapiens, HT-1080, 72 h) [nM] | IC50 ([5]; Homo sapiens, 72 h) [nM] | IC50 ([6]; Homo sapiens) [nM] | IC50 ([7]; Homo sapiens) [nM] | IC50 ([8]; Homo sapiens, HCT-15) [nM] | IC50 ([9]; Homo sapiens, 72 h) [nM] | IC50 ([10]; Homo sapiens, 72 h) [nM] | other results
1 | Cc1nc2c(n1-c1ccc(Br)cc1)C(=O)c1nccnc1C2=O [2-methyl-4,9-dehydro-1-(4-bromophenyl)-1H-imidazo[4,5-g]-quinoxaline-4,9-dione] |  |  |  |  |  |  |  |  |  | cytotoxicity compared with cisplatin or doxorubicin [1]: higher than that of cisplatin or doxorubicin
2 | COc1cccc2c1C(=O)c1c(O)c3c(c(O)c1C2=O)C[C@@](O)(C(=O)CO)C[C@@H]3O[C@H]1C[C@H](N)[C@H](O)[C@H](C)O1 [Doxorubicin, reference compound] | 22 | 19 | 22 | 98 | 44 | 41 | 251 | 52 | 44 | 
3 | Cc1c2ccncc2c(C)c2c1[nH]c1ccccc12 [Ellipticin, reference compound] |  |  |  |  |  |  |  |  |  | IC50 [2]: 1320 nM; IC50 [3]: 2410 nM; IC50 [4]: 1930 nM; IC50 [5]: 2620 nM; IC50 [6]: 3640 nM; IC50 [7]: 1470 nM; IC50 [8]: 3720 nM; IC50 [9]: 2990 nM; IC50 [10]: 3370 nM
4 | COc1ccc(Cn2nnc3c2C(=O)c2cnncc2C3=O)cc1 [Example 1a, 1-(4-methoxybenzyl)-1H-[1,2,3]triazolo[4,5-g]phthalazin-4,9-dione] | 54 | 41 | 330 | 2380 | 118 | 12 | 59 | 257 | 130 | 
5 | O=C1c2cnncc2C(=O)c2[nH]nnc21 [Example 1b, 1H-[1,2,3]triazolo[4,5-g]phthalazin-4,9-dione] | 9020 | > 10000 | > 5000 | > 5000 | > 10000 | 7640 | > 10000 | > 5000 | > 5000 | 
6 | Cn1nnc2c1C(=O)c1cnncc1C2=O [Example 2a, 1-methyl-1H-[1,2,3]triazolo[4,5-g]phthalazin-4,9-dione] | 4 | 8 | 73 | 311 | 35 | 3 | 103 | 241 | 82 | 
7 | Cn1nc2c(n1)C(=O)c1cnncc1C2=O [Example 2b, 2-methyl-2H-[1,2,3]triazolo[4,5-g]phthalazin-4,9-dione] | 2 | 2 | 7.8 | 132 | 4 | 0.4 | 20 | 54 | 124 | cytotoxicity rank against A549 [2, 11]: highest cytotoxicity; cytotoxicity rank against SK-MEL-2 [3, 11]: highest cytotoxicity; cytotoxicity rank against HT1080 [4, 11]: highest cytotoxicity; cytotoxicity rank against XF498 [6, 11]: highest cytotoxicity; cytotoxicity rank against SK-OV-3 [7, 11]: highest cytotoxicity
8 | CCn1nnc2c1C(=O)c1cnncc1C2=O [Example 3a, 1-ethyl-1H-[1,2,3]triazolo[4,5-g]phthalazin-4,9-dione] | 6 | 8 | 68 | 341 | 34 | 3 | 39 | 126 | 56 | 
9 | CCn1nc2c(n1)C(=O)c1cnncc1C2=O [Example 3b, 2-ethyl-2H-[1,2,3]triazolo[4,5-g]phthalazin-4,9-dione] | 18 | 4 | 204 | 170 | 17 | 3 | 18 | 46 | 90 | 
10 | CCCn1nnc2c1C(=O)c1cnncc1C2=O [Example 4a, 1-n-propyl-1H-[1,2,3]triazolo[4,5-g]phthalazin-4,9-dione] | 26 | 20 | 75 | 353 | 85 | 14 | 176 | 212 | 83 | 
11 | CCCn1nc2c(n1)C(=O)c1cnncc1C2=O [Example 4b, 2-n-propyl-2H-[1,2,3]triazolo[4,5-g]phthalazin-4,9-dione] | 19 | 9 | 33 | 57 | 18 | 9 | 18 | 43 | 157 | 
12 | CCCCn1nnc2c1C(=O)c1cnncc1C2=O [Example 5a, 1-n-butyl-1H-[1,2,3]triazolo[4,5-g]phthalazin-4,9-dione] | 81 | 23 | 99 | 421 | 181 | 21 | 177 | 155 | 89 | 
13 | CCCCn1nc2c(n1)C(=O)c1cnncc1C2=O [Example 5b, 2-n-butyl-2H-[1,2,3]triazolo[4,5-g]phthalazin-4,9-dione] | 18 | 15 | 30 | 66 | 19 | 17 | 18 | 50 | 151 | 

From US7160884B2, “1-/2-substituted-1H/-2H-[1,2,3]triazolo[4,5-g]phthalazine-4,9-dione compound, process for the preparation thereof and pharmaceutical composition comprising the same” (EWHA University-Industry Collaboration Foundation, priority 2005, dated 2007)
